Reference: patent US12162820B2 (TAIWANJ PHARMACEUTICALS CO., LTD., priority 2019, dated 2024)

Experiments:
Assay type in all cases: biochemical
HDAC2 = molecular target: T1, HDAC2 (Homo sapiens, UniProt Q92769); experiment: HDAC Inhibition Screening Assay (FLUOR DE LYS Fluorimetric Drug Discovery Kit), HDAC2; conditions: for inhibition at 2 µM: 2 μM compound; for inhibition at 10 µM: 10 μM compound; for inhibition at 50 µM: 50 μM compound
T1 construct: purchased Enzo Life Sciences
Experimental: (§1) The HDAC1/HDAC2/HDAC3 in vitro activities are detected by Enzo Life Sciences' HDAC1/HDAC2/HDAC3 Fluorimetric Drug Discovery Kit. The assay is based on the FLUOR DE LYS® Substrate and FLUOR DE LYS® Developer combination. The assay procedure has two steps. First, the FLUOR DE LYS® Substrate, which comprises an acetylated lysine side chain, is incubated with HDAC1/HDAC2/HDAC3, respectively. Deacetylation of the substrate sensitizes the substrate so that, in the second step, treatment with the FLUOR DE LYS® Developer produces a fluorophore. The signals of the test compounds (Compounds 1˜83; at concentrations of 2 μM, 10 μM and 50 μM) in 96-well plates are detected at 360 nm or 485 nm excitation and 460 nm or 530 nm emission with a Molecular Devices SpectraMax i3 Imaging Cytometer. The HDAC1/HDAC2/HDAC3 activities are expressed in percentage of basal control minus baseline control.

HDAC1 = molecular target: T2, HDAC1 (Homo sapiens, UniProt Q13547); experiment: HDAC Inhibition Screening Assay (FLUOR DE LYS Fluorimetric Drug Discovery Kit), HDAC1; conditions: for inhibition at 2 µM: 2 μM compound; for inhibition at 10 µM: 10 μM compound; for inhibition at 50 µM: 50 μM compound
T2 construct: purchased Enzo Life Sciences
Experimental: as §1

HDAC3 = molecular target: T3, HDAC3 (Homo sapiens, UniProt O15379); experiment: HDAC Inhibition Screening Assay (FLUOR DE LYS Fluorimetric Drug Discovery Kit), HDAC3; conditions: for inhibition at 2 µM: 2 μM compound; for inhibition at 10 µM: 10 μM compound; for inhibition at 50 µM: 50 μM compound
T3 construct: purchased Enzo Life Sciences
Experimental: as §1

ATX (autotaxin) = molecular target: T4, ATX (autotaxin) (Homo sapiens, UniProt Q13822); experiment: Autotaxin Inhibition Screening Assay (choline release from LPC, LPC-CR); conditions: for inhibition at 4 µM: 4 μM compound; for inhibition at 20 µM: 20 μM compound; for inhibition at 50 µM: 50 μM compound
T4 construct: purchased Cayman 10803
Experimental: ATX (autotaxin) activity was measured by choline release from LPC in presence or absence of test compounds (Compounds 1˜83; at concentrations of 4 μM, 20 μM and 50 μM). Twenty (20) ng ATX (10803, Cayman, MI, USA) was incubated with 100 μM 14:0 LPC (855575P, Avanti, AL, USA) in a final volume of 100 μL buffer containing 50 mM Tris pH 8.0, 0.01% Triton X-100, 50 mM CaCl2, 1 unit/ml choline oxidase, 2 unit/ml horseradish peroxidase (HRP), 2 mM homovanilic acid (HVA). The relative amount of released choline was measured by HVA fluorescence in a 96-well plate. Fluorescent intensity was determined at λex/λem=320/450 nm every 60 sec for 90 min with a SpectraMax i3 (Molecular Devices, CA, USA). Data analysis was performed using GraphPad Prism (GraphPad, La Jolla CA, USA). Inhibition %=[1−(SlopeTA−SlopeBlank)/(SlopeVehicle−SlopeBlank)]×100% HDAC Inhibition Screening Assay

T3 sequence (O15379 whole entry): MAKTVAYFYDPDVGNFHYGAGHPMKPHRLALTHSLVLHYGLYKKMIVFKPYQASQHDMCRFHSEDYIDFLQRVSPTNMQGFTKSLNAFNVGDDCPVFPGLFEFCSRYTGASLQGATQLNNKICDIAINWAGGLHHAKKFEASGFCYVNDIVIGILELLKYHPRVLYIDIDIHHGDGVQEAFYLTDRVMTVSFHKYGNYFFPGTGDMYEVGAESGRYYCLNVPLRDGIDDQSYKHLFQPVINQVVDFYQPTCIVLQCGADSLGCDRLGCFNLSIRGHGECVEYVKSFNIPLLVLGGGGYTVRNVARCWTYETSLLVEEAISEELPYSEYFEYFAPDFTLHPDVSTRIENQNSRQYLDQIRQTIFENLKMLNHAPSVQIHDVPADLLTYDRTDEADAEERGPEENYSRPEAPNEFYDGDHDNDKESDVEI
T3 sequence (O75376 395-489 partner limits assumed): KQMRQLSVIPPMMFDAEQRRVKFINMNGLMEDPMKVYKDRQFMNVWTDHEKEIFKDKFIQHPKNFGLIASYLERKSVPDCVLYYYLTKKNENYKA
T2 sequence (Q13547 whole entry): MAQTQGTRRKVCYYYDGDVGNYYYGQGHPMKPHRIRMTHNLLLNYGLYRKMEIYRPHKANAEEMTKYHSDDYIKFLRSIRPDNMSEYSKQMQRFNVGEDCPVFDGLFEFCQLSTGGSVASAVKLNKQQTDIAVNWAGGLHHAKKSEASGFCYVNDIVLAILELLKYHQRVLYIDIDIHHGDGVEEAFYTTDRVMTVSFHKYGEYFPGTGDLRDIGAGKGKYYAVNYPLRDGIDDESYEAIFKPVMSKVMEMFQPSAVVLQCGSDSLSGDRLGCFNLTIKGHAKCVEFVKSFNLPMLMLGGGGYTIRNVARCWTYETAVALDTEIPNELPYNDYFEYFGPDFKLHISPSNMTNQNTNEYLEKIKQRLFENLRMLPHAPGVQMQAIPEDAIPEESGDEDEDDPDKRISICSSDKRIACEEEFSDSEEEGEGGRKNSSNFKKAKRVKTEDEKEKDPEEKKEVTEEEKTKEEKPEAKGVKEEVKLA
T1 sequence (Q92769 whole entry): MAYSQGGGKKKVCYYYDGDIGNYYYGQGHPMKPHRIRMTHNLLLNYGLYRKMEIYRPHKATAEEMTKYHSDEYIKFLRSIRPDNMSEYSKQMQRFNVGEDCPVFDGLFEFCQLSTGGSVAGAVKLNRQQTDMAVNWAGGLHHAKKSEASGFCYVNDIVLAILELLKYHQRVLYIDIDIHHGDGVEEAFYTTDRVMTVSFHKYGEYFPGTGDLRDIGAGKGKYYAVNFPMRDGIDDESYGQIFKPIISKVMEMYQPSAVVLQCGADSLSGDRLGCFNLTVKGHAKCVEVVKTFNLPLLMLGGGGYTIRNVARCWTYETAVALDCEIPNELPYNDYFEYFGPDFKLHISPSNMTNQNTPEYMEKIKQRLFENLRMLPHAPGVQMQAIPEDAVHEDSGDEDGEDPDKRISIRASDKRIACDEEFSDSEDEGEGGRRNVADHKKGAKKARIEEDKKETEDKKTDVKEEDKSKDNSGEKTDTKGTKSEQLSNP

| inhibition at 2 µM (HDAC2) [%] | inhibition at 10 µM (HDAC2) [%] | inhibition at 50 µM (HDAC2) [%] | inhibition at 2 µM (HDAC1) [%] | inhibition at 10 µM (HDAC1) [%] | inhibition at 50 µM (HDAC1) [%] | inhibition at 2 µM (HDAC3) [%] | inhibition at 10 µM (HDAC3) [%] | inhibition at 50 µM (HDAC3) [%] | inhibition at 4 µM (ATX (autotaxin)) [%] | inhibition at 20 µM (ATX (autotaxin)) [%] | inhibition at 50 µM (ATX (autotaxin)) [%] | SMILES |
| --- | --- | --- | --- | --- | --- | --- | --- | --- | --- | --- | --- | --- |
| > 80 | > 80 | > 80 | > 80 | > 80 | > 80 | > 80 | > 80 | > 80 | < 50 | < 50 | < 50 | CN(C)c1ccc(C(=O)NC2CCc3cc(/C=C/C(=O)NO)ccc32)cc1 (stereo not drawn) [Compound 26, (E)-4-(dimethylamino)-N-(5-(3-(hydroxyamino)-3-oxoprop-1-en-1-yl)-2,3-dihydro-1H-inden-1-yl)benzamide] |
| < 50 | < 50 | < 50 | < 50 | < 50 | < 50 | < 50 | < 50 | < 50 | < 50 | < 50 | < 50 | CCN(CC)c1ccc(C(=O)NC2CCc3cc(/C=C/C(=O)Nc4ccc(F)cc4N)ccc32)cc1 (stereo not drawn) [Compound 27] |
| > 80 | > 80 | > 80 | > 80 | > 80 | > 80 | > 80 | > 80 | > 80 | < 50 | < 50 | < 50 | CCN(CC)c1ccc(C(=O)NC2CCc3cc(/C=C/C(=O)NO)ccc32)cc1 (stereo not drawn) [Compound 28, (E)-4-(diethylamino)-N-(5-(3-(hydroxyamino)-3-oxoprop-1-en-1-yl)-2,3-dihydro-1H-inden-1-yl)benzamide] |
| < 50 | < 50 | 50 to 80 | < 50 | < 50 | < 50 | < 50 | < 50 | < 50 | < 50 | < 50 | < 50 | CCN(CC)c1ccc(C(=O)NC2CCc3cc(/C=C/C(=O)NCCCCCC(=O)Nc4ccc(F)cc4N)ccc32)cc1 (stereo not drawn) [Compound 29, (E)-N-(5-(3-((6-((2-amino-4-fluorophenyl)amino)-6-oxohexyl)amino)-3-oxoprop-1-en-1-yl)-2,3-dihydro-1H-inden-1-yl)-4-(diethylamino)benzamide] |
| > 80 | > 80 | > 80 | > 80 | > 80 | > 80 | > 80 | > 80 | > 80 | < 50 | < 50 | 50 to 80 | CCN(CC)c1ccc(C(=O)NC2CCc3cc(/C=C/C(=O)NCCCCCC(=O)NO)ccc32)cc1 (stereo not drawn) [Compound 30, (E)-4-(diethylamino)-N-(5-(3-((6-(hydroxyamino)-6-oxohexyl)amino)-3-oxoprop-1-en-1-yl)-2,3-dihydro-1H-inden-1-yl)benzamide] |
| > 80 | > 80 | > 80 | < 50 | 50 to 80 | 50 to 80 | 50 to 80 | > 80 | > 80 | < 50 | < 50 | < 50 | Nc1cc(F)ccc1NC(=O)CCCCCNC(=O)/C=C/c1ccc2c(c1)CCC2NC(=O)c1ccc(F)cc1 (stereo not drawn) [Compound 31, (E)-N-(5-(3-((6-((2-amino-4-fluorophenyl)amino)-6-oxohexyl)amino)-3-oxoprop-1-en-1-yl)-2,3-dihydro-1H-inden-1-yl)-4-fluorobenzamide] |
| > 80 | > 80 | > 80 | > 80 | > 80 | > 80 | 50 to 80 | > 80 | > 80 | < 50 | < 50 | < 50 | O=C(/C=C/c1ccc2c(c1)CCC2NC(=O)c1ccc(F)cc1)NCCCCCC(=O)NO (stereo not drawn) [Compound 32, (E)-4-fluoro-N-(5-(3-((6-(hydroxyamino)-6-oxohexyl)amino)-3-oxoprop-1-en-1-yl)-2,3-dihydro-1H-inden-1-yl)benzamide] |

Further lines, the compound ahead of its results:

| SMILES | inhibition at 2 µM (HDAC2) [%] | inhibition at 10 µM (HDAC2) [%] | inhibition at 50 µM (HDAC2) [%] | inhibition at 2 µM (HDAC1) [%] | inhibition at 10 µM (HDAC1) [%] | inhibition at 50 µM (HDAC1) [%] | inhibition at 2 µM (HDAC3) [%] | inhibition at 10 µM (HDAC3) [%] | inhibition at 50 µM (HDAC3) [%] | inhibition at 4 µM (ATX (autotaxin)) [%] | inhibition at 20 µM (ATX (autotaxin)) [%] | inhibition at 50 µM (ATX (autotaxin)) [%] |
| --- | --- | --- | --- | --- | --- | --- | --- | --- | --- | --- | --- | --- |
| COc1ccc(S(=O)(=O)NC2CCc3cc(/C=C/C(=O)NO)ccc32)cc1 (stereo not drawn) [Compound 20, (E)-N-hydroxy-3-(1-((4-methoxyphenyl)sulfonamido)-2,3-dihydro-1H-inden-5-yl)acrylamide] | 50 to 80 | > 80 | > 80 | 50 to 80 | > 80 | > 80 | > 80 | > 80 | > 80 | < 50 | < 50 | < 50 |
| Nc1cc(F)ccc1NC(=O)/C=C/c1ccc2c(c1)CCC2NC(=O)c1cc(C(F)(F)F)cc(C(F)(F)F)c1 (stereo not drawn) [Compound 21, (E)-N-(5-(3-((2-amino-4-fluorophenyl)amino)-3-oxoprop-1-en-1-yl)-2,3-dihydro-1H-inden-1-yl)-3,5-bis(trifluoromethyl)benzamide] | < 50 | < 50 | < 50 | < 50 | < 50 | < 50 | < 50 | < 50 | < 50 | < 50 | < 50 | < 50 |
| O=C(/C=C/c1ccc2c(c1)CCC2NC(=O)c1cc(C(F)(F)F)cc(C(F)(F)F)c1)NO (stereo not drawn) [Compound 22, (E)-N-(5-(3-(hydroxyamino)-3-oxoprop-1-en-1-yl)-2,3-dihydro-1H-inden-1-yl)-3,5-bis(trifluoromethyl)benzamide] | 50 to 80 | > 80 | > 80 | 50 to 80 | > 80 | > 80 | 50 to 80 | > 80 | > 80 | < 50 | < 50 | < 50 |
| Nc1cc(F)ccc1NC(=O)/C=C/c1ccc2c(c1)CCCC2NC(=O)c1cc(C(F)(F)F)cc(C(F)(F)F)c1 (stereo not drawn) [Compound 23] | < 50 | < 50 | < 50 | < 50 | < 50 | < 50 | < 50 | < 50 | < 50 | < 50 | < 50 | < 50 |
| O=C(/C=C/c1ccc2c(c1)CCCC2NC(=O)c1cc(C(F)(F)F)cc(C(F)(F)F)c1)NO (stereo not drawn) [Compound 24, (E)-N-(6-(3-(hydroxyamino)-3-oxoprop-1-en-1-yl)-1,2,3,4-tetrahydronaphthalen-1-yl)-3,5-bis(trifluoromethyl)benzamide] | < 50 | < 50 | 50 to 80 | < 50 | < 50 | 50 to 80 | < 50 | < 50 | < 50 | < 50 | < 50 | < 50 |
| COc1ccc(C(=O)NC2CCc3cc(/C=C/C(=O)NO)ccc32)cc1 (stereo not drawn) [Compound 25, (E)-N-(5-(3-(hydroxyamino)-3-oxoprop-1-en-1-yl)-2,3-dihydro-1H-inden-1-yl)-4-methoxybenz amide] | > 80 | > 80 | > 80 | > 80 | > 80 | > 80 | > 80 | > 80 | > 80 | < 50 | < 50 | < 50 |
